Patent US20170340742A1, “A METHOD FOR DELIVERING A SUBSTANCE INTO CELLS” (TECHNISCHE UNIVERSITÄT DARMSTADT, priority 2014, published 2017)
No end group written: not given here. Ahx = NCCCCCC(=O)O

System: living cells
Assay: Comparative test of cellular penetration of cell-penetrating compounds with and without mediator compounds at low and high pH
Type: cell-based
Parameters: key: −: no uptake detectable; +: low efficiency of uptake detectable; ++: moderate efficiency of uptake detectable; +++: strong de efficiency of uptake detectable; ++++: very strong efficiency of uptake detectable
Conditions: compound 2 μM, 30 min
Experimental: A comparative test of cellular penetration of different cell-penetrating compounds was performed in the presence and absence of different mediator compounds at low and high pH. The cell-penetrating compounds (2 μM) and the mediator compounds (6 μM) were mixed in Hepes buffers at low pH (6.5) and high pH (8.5).
The cell media (DMEM) was removed and exchanged by these solutions and incubated for 30 min. Then the solutions were removed and the cells were embedded back in cell culture media (DMEM) and imaged. The efficiency of uptake in the different conditions was determined.
The determined efficacy is depicted with increasing efficacy from “−” no uptake detectable, “+” low efficiency of uptake detectable, “++” moderate efficiency of uptake detectable, “+++” strong de efficiency of uptake detectable, “++++” very strong efficiency of uptake detectable.

Measured: Efficiency of uptake

TAMRA-Ahx-LGQQQPFPPQQPY ({TAMRA-Ahx}-LGQQQPFPPQQPY)
−: Mediator 1: Curcumin 6 μM, high pH of 8.5 | Mediator 1: Curcumin 6 μM, low pH of 6.5 | Mediator 2: Levothyroxine 6 μM, high pH of 8.5 | Mediator 2: Levothyroxine 6 μM, low pH of 6.5 | no mediator, high pH of 8.5 | no mediator, low pH of 6.5
